Values quoted from earlier work as cited in patent US20240408209A1, “Peptide-Protected Gold Nanocluster and Use in Photodynamic Therapy” (Queen's University at Kingston, priority 2023, published 2024).

Details: positive control

Compound: CN(C)c1ccc2nc3ccc(=[N+](C)C)cc-3sc2c1 [Methylene blue]
- QY of photochemical generation of 1O2: 0.52
